Measurements from PubChem BioAssay AID242 (DTP/NCI, 2004).
“And” between values parts separate entries of the source, which are not always exact repeats. Equal values may be shown once. Toxic doses and inconclusive results are not listed.

Test system: BDF1 mice, Lymphoma 8 ip, survival T/C
Assay: NCI In Vivo Anticancer Drug Screen. Data for tumor model Lymphoma 8 (intraperitoneal) in B6D2F1 (BDF1) mice
Conditions: higher = longer survival
Method: The antitumor activity of compounds was measured in mice bearing transplantable tumors. Survival or tumor size were measured and the results are expressed as the measurement made in the treated group (T) divided by the measurement made in the vehicle treated control group (C). The tumor model used in this assay is Lymphoma 8 (intraperitoneal) in B6D2F1 (BDF1) mice

[1] = endpoint: survival time, mean or median, dose: 12.5 mg/kg/injection, schedule: Q01DX015 (ip), vehicle: carboxymethylcellulose (CMC)
[2] = endpoint: survival time, mean or median, dose: 25.0 mg/kg/injection, schedule: Q01DX015 (ip), vehicle: carboxymethylcellulose (CMC)
[3] = endpoint: survival time, mean or median, dose: 50.0 mg/kg/injection, schedule: Q01DX015 (ip), vehicle: carboxymethylcellulose (CMC)
[4] = endpoint: survival time, mean or median, dose: 100.0 mg/kg/injection, schedule: Q01DX015 (ip), vehicle: carboxymethylcellulose (CMC)
[5] = endpoint: survival time, mean or median, dose: 5.0 mg/kg/injection, schedule: Q01DX010 (ip), vehicle: saline
[6] = endpoint: survival time, mean or median, dose: 20.0 mg/kg/injection, schedule: Q01DX010 (ip), vehicle: saline
[7] = endpoint: survival time, mean or median, dose: 62.5 mg/kg/injection, schedule: Q01DX015 (ip), vehicle: carboxymethylcellulose (CMC)
[8] = endpoint: survival time, mean or median, dose: 125.0 mg/kg/injection, schedule: Q01DX015 (ip), vehicle: carboxymethylcellulose (CMC)
[9] = endpoint: survival time, mean or median, dose: 250.0 mg/kg/injection, schedule: Q01DX015 (ip), vehicle: carboxymethylcellulose (CMC)
[10] = endpoint: survival time, mean or median, dose: 62.5 mg/kg/injection, schedule: Q01DX010 (ip), vehicle: saline
[11] = endpoint: survival time, mean or median, dose: 125.0 mg/kg/injection, schedule: Q01DX010 (ip), vehicle: saline
[12] = endpoint: survival time, mean or median, dose: 250.0 mg/kg/injection, schedule: Q01DX010 (ip), vehicle: saline
[13] = endpoint: survival time, mean or median, dose: 500.0 mg/kg/injection, schedule: Q01DX010 (ip), vehicle: saline
[14] = endpoint: survival time, mean or median, dose: 50.0 mg/kg/injection, schedule: Q01DX010 (ip), vehicle: saline
[15] = endpoint: survival time, mean or median, dose: 100.0 mg/kg/injection, schedule: Q01DX010 (ip), vehicle: saline
[16] = endpoint: survival time, mean or median, dose: 200.0 mg/kg/injection, schedule: Q01DX010 (ip), vehicle: saline
[17] = endpoint: survival time, mean or median, dose: 8.0 mg/kg/injection, schedule: Q01DX010 (ip), vehicle: saline

CC(C)CNS(=O)(=O)c1ncnc2nc[nH]c12
T/C (endpoint: survival time, mean or median, dose: 18.8 mg/kg/injection, schedule: Q01DX015 (ip), vehicle: carboxymethylcellulose (CMC)): 114 % of control | T/C (endpoint: survival time, mean or median, dose: 37.5 mg/kg/injection, schedule: Q01DX015 (ip), vehicle: carboxymethylcellulose (CMC)): 99 % of control | T/C (endpoint: survival time, mean or median, dose: 75.0 mg/kg/injection, schedule: Q01DX015 (ip), vehicle: carboxymethylcellulose (CMC)): 96 % of control

COc1ccc(C[n+]2cc([O-])on2)cc1
T/C [1]: 99 % of control | T/C [2]: 106 % of control | T/C [3]: 100 % of control | T/C [4]: 113 % of control

COc1cc(-c2ccc(Nc3ccccc3C(=O)O)c(OC)c2)ccc1Nc1ccccc1C(=O)O
T/C [2]: 101 % of control | T/C [3]: 89 % of control | T/C [4]: 96 % of control | T/C (endpoint: survival time, mean or median, dose: 200.0 mg/kg/injection, schedule: Q01DX015 (ip), vehicle: carboxymethylcellulose (CMC)): 90 % of control

NC(C/[N+]([O-])=N/O)C(=O)O (stereo not drawn)
T/C (endpoint: median survival time, dose: 12.5 mg/kg/injection, schedule: Q01DX009 (ip), vehicle: saline): 113 % of control | T/C (endpoint: median survival time, dose: 25.0 mg/kg/injection, schedule: Q01DX009 (ip), vehicle: saline): 117 % of control

NC(=O)c1cn(C2OC(CO)C(O)C2O)c2ncnc(N)c12 (stereo not drawn)
T/C (endpoint: survival time, mean or median, dose: 0.5 mg/kg/injection, schedule: Q01DX015 (ip), vehicle: carboxymethylcellulose (CMC)): 106 % of control | T/C (endpoint: survival time, mean or median, dose: 1.0 mg/kg/injection, schedule: Q01DX015 (ip), vehicle: carboxymethylcellulose (CMC)): 116 % of control | T/C (endpoint: survival time, mean or median, dose: 2.0 mg/kg/injection, schedule: Q01DX015 (ip), vehicle: carboxymethylcellulose (CMC)): 94 % of control

O=c1[nH]cc(F)c(=O)[nH]1
T/C (endpoint: median survival time, dose: 28.8 mg/kg/injection, schedule: Q04DX003 (ip), vehicle: saline): 155 % of control | T/C (endpoint: median survival time, dose: 48.0 mg/kg/injection, schedule: Q04DX003 (ip), vehicle: saline): 277 % of control | T/C (endpoint: median survival time, dose: 80.0 mg/kg/injection, schedule: Q04DX003 (ip), vehicle: saline): 331 % of control | T/C [5]: 108 % of control and 114 % of control | T/C [6]: 153 % of control and 158 % of control

CN(C)c1nc(N(C)C)nc(N(C)C)n1
T/C (endpoint: survival time, mean or median, dose: 18.8 mg/kg/injection, schedule: Q01DX010 (ip), vehicle: saline): 104 % of control and 122 % of control | T/C (endpoint: survival time, mean or median, dose: 37.5 mg/kg/injection, schedule: Q01DX010 (ip), vehicle: saline): 95 % of control and 113 % of control | T/C (endpoint: survival time, mean or median, dose: 75.0 mg/kg/injection, schedule: Q01DX010 (ip), vehicle: saline): 100 % of control | T/C (endpoint: survival time, mean or median, dose: 150.0 mg/kg/injection, schedule: Q01DX010 (ip), vehicle: saline): 100 % of control

CC(Cl)CN(Cc1cc(O)c(CN(CC(C)Cl)CC(C)Cl)cc1O)CC(C)Cl (stereo not drawn)
T/C [7]: 100 % of control | T/C [8]: 95 % of control | T/C [9]: 94 % of control | T/C (endpoint: survival time, mean or median, dose: 500.0 mg/kg/injection, schedule: Q01DX015 (ip), vehicle: carboxymethylcellulose (CMC)): 88 % of control and 91 % of control | T/C (endpoint: survival time, mean or median, dose: 750.0 mg/kg/injection, schedule: Q01DX015 (ip), vehicle: carboxymethylcellulose (CMC)): 90 % of control | T/C (endpoint: survival time, mean or median, dose: 1000.0 mg/kg/injection, schedule: Q01DX015 (ip), vehicle: carboxymethylcellulose (CMC)): 90 % of control

Nc1nc(SCc2ccccn2)c2[nH]cnc2n1
T/C [1]: 98 % of control | T/C [2]: 96 % of control | T/C [4]: 104 % of control

CCN(CC)c1ccc2cc3ccc(=[N+](CC)CC)cc-3oc2c1
T/C (endpoint: survival time, mean or median, dose: 1.0 mg/kg/injection, schedule: Q01DX010 (ip), vehicle: saline): 96 % of control

CCCSc1ncnc2nc[nH]c12
T/C (endpoint: survival time, mean or median, dose: 31.3 mg/kg/injection, schedule: Q01DX010 (ip), vehicle: saline): 100 % of control and 113 % of control | T/C [10]: 95 % of control and 100 % of control | T/C [11]: 95 % of control and 104 % of control | T/C [12]: 86 % of control

O=c1cnn(C2OC(CO)C(O)C2O)c(=O)[nH]1 (stereo not drawn)
T/C (endpoint: survival time, mean or median, dose: 200.0 mg/kg/injection, schedule: Q01DX008 (ip), vehicle: saline): 115 % of control | T/C (endpoint: survival time, mean or median, dose: 800.0 mg/kg/injection, schedule: Q01DX008 (ip), vehicle: saline): 96 % of control

O=c1cn[nH]c(=O)[nH]1
T/C [10]: 95 % of control and 100 % of control and 109 % of control | T/C [11]: 91 % of control and 95 % of control and 110 % of control | T/C [12]: 90 % of control and 93 % of control and 115 % of control | T/C [13]: 100 % of control (2×) and 106 % of control

CN(N=O)C(N)=O
T/C [5]: 114 % of control | T/C [6]: 110 % of control

CN(C)C(=S)N=Nc1c(O)[nH]c2ccccc12
T/C [2]: 124 % of control | T/C [4]: 104 % of control

CN(C)[C@@H]1C(=O)C(C(N)=O)=C(O)[C@@]2(O)C(=O)C3=C(O)c4c(O)cccc4C[C@H]3C[C@@H]12
T/C (endpoint: survival time, mean or median, dose: 15.0 mg/kg/injection, schedule: Q01DX015 (ip), vehicle: alkali diluted with saline): 93 % of control | T/C (endpoint: survival time, mean or median, dose: 30.0 mg/kg/injection, schedule: Q01DX015 (ip), vehicle: alkali diluted with saline): 89 % of control

Nc1nc2n[nH]nc2c(=O)[nH]1
T/C (endpoint: survival time, mean or median, dose: 25.0 mg/kg/injection, schedule: Q01DX010 (ip), vehicle: alkali diluted with saline): 108 % of control | T/C (endpoint: survival time, mean or median, dose: 50.0 mg/kg/injection, schedule: Q01DX010 (ip), vehicle: alkali diluted with saline): 104 % of control and 112 % of control | T/C (endpoint: survival time, mean or median, dose: 100.0 mg/kg/injection, schedule: Q01DX010 (ip), vehicle: alkali diluted with saline): 112 % of control and 116 % of control | T/C (endpoint: survival time, mean or median, dose: 200.0 mg/kg/injection, schedule: Q01DX010 (ip), vehicle: alkali diluted with saline): 116 % of control

COc1ccc(CSc2ncnc3nc[nH]c23)cc1
T/C [7]: 95 % of control | T/C [8]: 92 % of control | T/C [9]: 87 % of control

O=c1[nH]c(=O)n(C2CC(O)C(CO)O2)cc1F (stereo not drawn)
T/C (endpoint: survival time, mean or median, dose: 10.0 mg/kg/injection, schedule: Q01DX010 (ip), vehicle: saline): 103 % of control | T/C [6]: 100 % of control | T/C (endpoint: survival time, mean or median, dose: 40.0 mg/kg/injection, schedule: Q01DX010 (ip), vehicle: saline): 114 % of control | T/C (endpoint: survival time, mean or median, dose: 80.0 mg/kg/injection, schedule: Q01DX010 (ip), vehicle: saline): 96 % of control

OCC1OC(n2cnc3c(Cl)ncnc32)C(O)C1O (stereo not drawn)
T/C [10]: 90 % of control and 105 % of control | T/C [11]: 95 % of control and 100 % of control and 105 % of control | T/C [12]: 90 % of control and 95 % of control and 105 % of control | T/C [13]: 97 % of control and 104 % of control and 115 % of control

COc1ccc(C2NCCS2)cc1 (stereo not drawn)
T/C [14]: 103 % of control | T/C [15]: 100 % of control | T/C [16]: 106 % of control | T/C (endpoint: survival time, mean or median, dose: 400.0 mg/kg/injection, schedule: Q01DX010 (ip), vehicle: saline): 100 % of control

CCCCN(CCCC)CCCCCN
T/C (endpoint: survival time, mean or median, dose: 5.0 mg/kg/injection, schedule: Q01DX015 (ip), vehicle: carboxymethylcellulose (CMC)): 99 % of control | T/C (endpoint: survival time, mean or median, dose: 10.0 mg/kg/injection, schedule: Q01DX015 (ip), vehicle: carboxymethylcellulose (CMC)): 101 % of control | T/C (endpoint: survival time, mean or median, dose: 20.0 mg/kg/injection, schedule: Q01DX015 (ip), vehicle: carboxymethylcellulose (CMC)): 104 % of control | T/C (endpoint: survival time, mean or median, dose: 30.0 mg/kg/injection, schedule: Q01DX015 (ip), vehicle: carboxymethylcellulose (CMC)): 99 % of control

C[n+]1c2ccccc2nc2c(N)cc(N)cc21
T/C [17]: 121 % of control | T/C (endpoint: survival time, mean or median, dose: 12.0 mg/kg/injection, schedule: Q01DX010 (ip), vehicle: saline): 117 % of control | T/C (endpoint: survival time, mean or median, dose: 18.0 mg/kg/injection, schedule: Q01DX010 (ip), vehicle: saline): 107 % of control

COc1ccccc1CNCCO
T/C [14]: 103 % of control | T/C [15]: 103 % of control | T/C [16]: 93 % of control

Nc1ccc(OC(=O)Oc2ccc(N)cc2)cc1
T/C (endpoint: survival time, mean or median, dose: 25.0 mg/kg/injection, schedule: Q01DX015 (ip), vehicle: saline): 105 % of control | T/C (endpoint: survival time, mean or median, dose: 50.0 mg/kg/injection, schedule: Q01DX015 (ip), vehicle: saline): 91 % of control | T/C (endpoint: survival time, mean or median, dose: 100.0 mg/kg/injection, schedule: Q01DX015 (ip), vehicle: saline): 111 % of control | T/C (endpoint: survival time, mean or median, dose: 200.0 mg/kg/injection, schedule: Q01DX015 (ip), vehicle: saline): 106 % of control

Nc1nc(=S)c2ncn(C3OC(CO)C(O)C3O)c2[nH]1 (stereo not drawn)
T/C (endpoint: survival time, mean or median, dose: 4.0 mg/kg/injection, schedule: Q01DX010 (ip), vehicle: saline): 92 % of control | T/C [17]: 89 % of control

Clc1ccc2c(Cl)ncnc2c1
T/C [2]: 95 % of control | T/C [3]: 88 % of control
